In data set [1] the test system is HIV-1. Kind of data set: Anti-viral activity: syncytium formation (Sup T1) or reverse transcriptase assay (H9). Conditions: Human immunodeficiency virus 1, SUP-T1. In kind it is cell-based. On the procedure: The anti-viral activity of the compounds of the present invention was determined by measuring the concentration of the compounds that inhibits the proliferation of HIV by 50%(IC50) through a survey for syncytium formation or reverse transcriptase assay.
1×10^5 cells of each of H9(ATCC HTB 176) and Sup T1 cell lines were added to the wells of a 24-well microtiter plate and various concentrations so the compounds of the present invention were added thereto. 200 TCID50 (200-fold of 50% tissue culture infection dose) of HIV-1 inoculum and rpmi-1640 medium(Sigma Chemical Co., U.S.A) were added successively to the wells and the plate was incubated at 37° C. In case of Sup T1, the number of syncytium formed was investigated after 3 to 9 days. IC50 of each compound was determined by measuring the concentration of inhibitor that can reduce the number of syncytium by 50% compared with those formed in the same condition without the inhibitor.
In case of H9, three-quarters(3/4) of the culture medium in volume was refreshed every 3 days; and 6 ml of the culture fluid was centrifuged at 1000 rpm for 10 minutes. To 5 ml of the resulting supernatant were added 2.5 ml of 30% polyethyleneglycol(PEG, M.W. 6000-8000) and 0.4M NaCl. The resulting solution was allowed to stand at 0° C. overnight to precipitate virus particles. The solution was centrifuged at 2000 rpm for 45 minutes, the supernatant was discarded therefrom and the precipitate was diluted with 20 μl of a reverse transcriptase suspension buffer(50 mM tris-HCl, pH 7.5, 1 mM dithiothreitol, 20% glycerol, 0.25M KCl and 0.25% Triton X-100). The resulting suspension was stored in an Effendorf tube at -70° C. until used. A procedure of freezing said virus suspension for 2 minutes in dry ice and thawing same at 37° C. for 2 minutes was repeated three times and the resulting suspension was centrifuged at 4° C. The resulting supernatant was used in carrying out the reverse transcriptase assay.
10 μl of the said viral suspension was added to a solution of: 10 μl of buffer solution(250 mM tris-HCl, pH 7.5, 37.5 mM MgCl2, 0.25% triton X-100), 1.2 μl of 200 mM dithiothreitol, 5 μl of 10 μM oligo(dT)-poly(A)(Boeringer Manheim, 12-18 oligomer), 1 μl(1 μCi) of ^3 H-TTP(Thymidinetri-phosphate) and 23.6 μl of water; and the resulting mixture was placed at 37° C. After 1 hour, the mixture was poured onto a WHATMAN DEB1 filter and the filter was washed three times with 5 ml of 2×SSC buffer solution(17.53 g of sodium chloride, 8.82 g of sodium citrate, pH 7.0, 1 liter of water) for about 10 minutes each time and twice with 95% ethanol for 10 seconds. The filter was put onto aluminium foil and dried with an infra-red lamp. The amount of radioactivity was counted using a liquid scintillation counter. IC50 of each compound was determined by measuring the concentration of inhibitor that can reduce the activity of reverse transcriptase by 50%.

The nature of data set [2]: Cytotoxicity in H9 or Sup T1 cells (trypan blue dye exclusion). In kind it is cell-based. Conditions: human. The procedure:
To determine the cytotoxicity of the compounds of the present invention, 0.1 μM to 100 μM of the novel compounds were added to H9 cell or Sup T1 cell and the mixture was cultured on a rpmi-1640 medium at 37° C. The medium was refreshed every 3 days and the extent of cell proliferation was observed using Hemacytometer according to the trypan blue dye exclusion technique which is well known in the art. CT50 (i.e., concentration that causes death of cells by 50%) was determined. For reference, AZT(Burrows-Wellcome), A-75925 (Abbott, C2 symmetric compound) and Ro-31-8959(F. Hofmann-La Roche) were used as control compounds.

In data set [3] the target is T1, HIV-1 protease (Human immunodeficiency virus type 1 group M subtype B, UniProt P04585).
T1 construct: 2.6 nM of HIV-1 protease
Kind of data set: Assay for inhibitory effect on HIV protease (residual enzyme activity, HPLC of substrate cleavage). In kind it is biochemical. In short, it runs like this: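 HIV-1 protease (2.6 nM) incubated with inhibitor in 50 mM sodium acetate pH 5.5, 1 mM DTT, 1 mM EDTA, 0.75 M ammonium sulfate, 0.2 M NaCl, 0.1% NP40. Residual activity was sampled over time using 100 μM p-NO2-Phe undecapeptide substrate (KM 20 μM), HPLC, 280 nm. kobs came from ln(activity)-versus-time slope, and KI and kina from kinetic fitting.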

Where [4] appears, read: concentration that causes death of cells by 50%, H9 or Sup T1 cells, 37° C, read-out: CT50 (the source's name).
[5] abbreviates: HIV-1 protease 2.6 nM, pH 5.5, inhibition constant.
Setting [6] is: HIV-1 protease 2.6 nM, pH 5.5, rate constant of covalent bond formation, read-out: kina (converted).
The mark [7] stands for this setting: second order rate constant, HIV-1 protease, pH 5.5, read-out: kina /KI (converted).

The structures appear in SMILES notation. Like-named read-outs stand apart in the source and are kept apart here.

`CC(C)C(NC(=O)C[C@@H]1O[C@@H]1[C@H](Cc1ccccc1)NC(=O)[C@H](CC(N)=O)NC(=O)c1ccc2ccccc2n1)C(C)C` [compound 46] registered a half-inhibitory concentration (IC50) in data set [1] of 0.04 µM. Besides, the CC50 in data set [2] (setting [4]) was over 100 µM. Further, in data set [3] (setting [5]), the inhibitory constant (Ki) is 0.0009 µM. Also, the kinact in data set [3] (setting [6]) was 0.00267 s⁻¹. The kinact/KI in data set [3] (setting [7]) is 3000 M⁻¹ s⁻¹.
As for `CC(C)[C@H](NC(=O)C[C@@H]1O[C@@H]1[C@H](Cc1ccccc1)NC(=O)[C@H](CC(N)=O)NC(=O)c1ccc2ccccc2n1)c1ccccc1` [compound 47], the IC50 in data set [1] is 0.07 µM. Also, the CC50 in data set [2] (setting [4]) is over 100 µM. In addition, the Ki in data set [3] (setting [5]) is 0.012 µM. Moreover, the kinact in data set [3] (setting [6]) was 0.0383 s⁻¹. In data set [3] (setting [7]), the kinact/KI was 3.17e+06 M⁻¹ s⁻¹.
For `CC(C)C(Cc1ccccc1)NC(=O)C[C@@H]1O[C@@H]1[C@H](Cc1ccccc1)NC(=O)[C@H](CC(N)=O)NC(=O)c1ccc2ccccc2n1` (stereo partly drawn) [compound 48] the same measures were 0.5 µM, about 5 µM, 0.6 µM, 0.035 s⁻¹ and 58300 M⁻¹ s⁻¹.
For `CC(C)[C@@H](CCc1ccccc1)NC(=O)C[C@@H]1O[C@@H]1[C@H](Cc1ccccc1)NC(=O)[C@H](CC(N)=O)NC(=O)c1ccc2ccccc2n1` [compound 49] the same measures were over 5 µM, over 100 µM, 0.8 µM, 0.03 s⁻¹ and 38300 M⁻¹ s⁻¹.
`CC(C)[C@@H](CCCc1ccccc1)NC(=O)C[C@@H]1O[C@@H]1[C@H](Cc1ccccc1)NC(=O)[C@H](CC(N)=O)NC(=O)c1ccc2ccccc2n1` [compound 50] registered an IC50 in data set [1] of over 5 µM. Also, the CC50 in data set [2] (setting [4]) was over 100 µM. The Ki in data set [3] (setting [5]) was determined as 0.95 µM. The kinact in data set [3] (setting [6]) was 0.025 s⁻¹. The kinact/KI in data set [3] (setting [7]) was 26700 M⁻¹ s⁻¹.
`NC(=O)C[C@H](NC(=O)OCc1ccccc1)C(=O)N[C@@H](Cc1ccccc1)[C@H]1O[C@H]1CCc1ccccc1` [compound 52, 2-L-(N-benzyloxycarbonyl-L-asparaginyl)amino-(3R,4S)-epoxy-1,6-diphenylhexane]: the half-inhibitory concentration (IC50) in data set [1] lay within 0.7 to 1.2 µM. Besides, in data set [2] (setting [4]), the CC50 was over 100 µM. Moreover, the Ki in data set [3] (setting [5]) turned out to be 0.1 µM. The kinact in data set [3] (setting [6]) was 0.0005 s⁻¹. Also, in data set [3] (setting [7]), the kinact/KI is 5000 M⁻¹ s⁻¹.
On the same counts, the results for `CC(C)[C@H](NC(=O)OCc1ccccc1)C(=O)N[C@@H](Cc1ccccc1)[C@H]1O[C@H]1CCc1ccccc1` [compound 53, 2-L-(N-benzyloxycarbonyl-L-valinyl)amino-(3R,4S)-epoxy-1,6-diphenylhexane] are 1 to 1.5 µM, over 100 µM, 0.091 µM, 0.0015 s⁻¹ and 16500 M⁻¹ s⁻¹.
On the same counts, the results for `NC(=O)C[C@H](NC(=O)COc1cccc2ccccc12)C(=O)N[C@@H](Cc1ccccc1)[C@H]1O[C@H]1CCc1ccccc1` [compound 61, 2-L-(N-1-naphthoxyacetyl-L-asparaginyl)amino-(3R,4S)-epoxy-1,6-diphenylhexane] are 1 to 2 µM, over 100 µM, 0.25 µM, 0.0005 s⁻¹ and 2000 M⁻¹ s⁻¹.
In turn, `NC(=O)C[C@H](NC(=O)c1ccc2ccccc2n1)C(=O)N[C@@H](Cc1ccccc1)[C@H]1O[C@H]1CCc1ccccc1` [compound 62, 2-L-(N-2-quinolinecarbonyl-L-asparaginyl)amino-(3R,4S)-epoxy-1,6-diphenylhexane] came in with an IC50 in data set [1] of 0.2 to 0.7 µM. For the same compound, in data set [2] (setting [4]), the CC50 is over 100 µM. In data set [3] (setting [5]), this compound had a Ki of 0.13 µM. Besides, in data set [3] (setting [6]), the kinact is 0.00183 s⁻¹. Besides, the kinact/KI in data set [3] (setting [7]) is 14200 M⁻¹ s⁻¹.
`NC(=O)C[C@H](NC(=O)c1cnc2ccccc2n1)C(=O)N[C@@H](Cc1ccccc1)[C@H]1O[C@H]1CCc1ccccc1` [compound 63, 2-L-(N-quinoxaline-2-ylcarbonyl-L-asparaginyl)amino-(3R,4S)-epoxy-1,6-diphenylhexane] yielded an IC50 in data set [1] of 1 to 2 µM. For the same compound, the CC50 in data set [2] (setting [4]) was over 100 µM. Besides, in data set [3] (setting [5]), the affinity corresponds to a Ki of 0.25 µM. For the same compound, in data set [3] (setting [6]), the kinact is 0.00483 s⁻¹. For the same compound, the kinact/KI in data set [3] (setting [7]) was 20000 M⁻¹ s⁻¹.
In data set [1], `CC(C)CC[C@@H]1O[C@@H]1[C@H](Cc1ccccc1)NC(=O)[C@H](CC(N)=O)NC(=O)c1ccc2ccccc2n1` [compound 70, 2-L-[N-(2-quinolinecarbonyl)-L-asparaginyl]amino-(3R,4S)-epoxy-7-methyl-1-phenyloctane] registered an IC50 of 5 µM. Further, the CC50 in data set [2] (setting [4]) was over 100 µM. The compound further gave a Ki in data set [3] (setting [5]) of 0.31 µM. For the same compound, the kinact in data set [3] (setting [6]) was 0.002 s⁻¹. For the same compound, in data set [3] (setting [7]), the kinact/KI was 6500 M⁻¹ s⁻¹.
Take `CC(C)[C@H](NC(=O)OCc1ccccc1)C(=O)NC[C@@H]1O[C@@H]1[C@H](Cc1ccccc1)NC(=O)[C@@H](NC(=O)OCc1ccccc1)C(C)C` [compound 71, 4S-1,4-bis[N-(N'-benzyloxycarbonyl-L-valinyl)amino]-5-phenyl-(2S,3R)-(Z)-epoxypentane]: the IC50 in data set [1] worked out at 0.08 µM. For the same compound, in data set [2] (setting [4]), the CC50 was over 100 µM. This compound gave a Ki in data set [3] of 0.00018 µM. The kinact in data set [3] (pH 5.5, read-out: kina) was 0.00233 s⁻¹. In data set [3] (pH 5.5, read-out: kina /KI), the kinact/KI was 1.28e+06 M⁻¹ s⁻¹.
In data set [1], `NC(=O)C[C@H](NC(=O)OCc1ccccc1)C(=O)NC[C@@H]1O[C@@H]1[C@H](Cc1ccccc1)NC(=O)[C@H](CC(N)=O)NC(=O)OCc1ccccc1` [compound 72] registered an IC50 of 0.5 µM. Further, the CC50 in data set [2] (h9 or sup t1 cells) is over 100 µM. In data set [3] (setting [5]), the affinity corresponds to a Ki of 0.11 µM. For the same compound, the kinact in data set [3] (setting [6]) was 0.00367 s⁻¹. Besides, the kinact/KI in data set [3] (setting [7]) was 33300 M⁻¹ s⁻¹.
Turning to `C[C@@H](O)[C@H](NC(=O)OCc1ccccc1)C(=O)NC[C@@H]1O[C@@H]1[C@H](Cc1ccccc1)NC(=O)[C@@H](NC(=O)OCc1ccccc1)[C@@H](C)O` [compound 73], the half-maximal inhibitory concentration (IC50) in data set [1] is 5 µM. For the same compound, the CC50 in data set [2] (setting [4]) is over 100 µM. The Ki in data set [3] (setting [5]) is over 10 µM.
With `CC(C)[C@H](NC(=O)OCc1ccccc1)C(=O)NC[C@@H]1O[C@@H]1[C@H](Cc1ccccc1)NC(=O)[C@H](CC(N)=O)NC(=O)OCc1ccccc1` [compound 75], 1 µM corresponded to half-maximal inhibition in data set [1] (IC50). In addition, the CC50 in data set [2] (setting [4]) was over 10 µM. In data set [3] (setting [5]), this compound had a Ki of over 10 µM.
`CC(C)[C@H](NC(=O)OCc1ccccc1)C(=O)N[C@@H](Cc1ccccc1)[C@H]1O[C@H]1CNC(=O)[C@H](CC(N)=O)NC(=O)OCc1ccccc1` [compound 76, 4S-[N^1-[(N-benzyloxycarbonyl-L-asparaginyl)amino]]-[N^4-[(N-benzyloxycarbonyl-L-valinyl)amino]]-5-phenyl-(2S,3R)-(Z)-epoxypentane] registered an IC50 in data set [1] of 1 µM. Also, the CC50 in data set [2] (setting [4]) is over 100 µM. This compound also had a Ki in data set [3] (setting [5]) of 2 µM. Also, the kinact in data set [3] (setting [6]) is 0.000767 s⁻¹. The kinact/KI in data set [3] (setting [7]) was 383 M⁻¹ s⁻¹.
For `CC(C)[C@H](NC(=O)OCc1ccccn1)C(=O)NC[C@@H]1O[C@@H]1[C@H](Cc1ccccc1)NC(=O)[C@@H](NC(=O)OCc1ccccn1)C(C)C` [compound 77] the same measures were 1 µM, over 100 µM, 0.1 µM, 0.004 s⁻¹ and 40000 M⁻¹ s⁻¹.

In general, IC50 refers to the concentration that inhibits the measured activity by half. As a reminder, the Ki is a dissociation constant, usually derived from enzyme kinetics or from competition with a known ligand.

Values taken from US5744621A, “Irreversible HIV protease inhibitors, intermediates, compositions and processes for the preparation thereof” (Lucky Limited., priority 1992, dated 1998).
